Experimental findings from ChEMBL document CHEMBL4400544, “Pharmacokinetic evaluation of medicinally important synthetic N,N' diindolylmethane glucoside: Improved synthesis and metabolic stability” (Bioorg Med Chem Lett, 2019) are described below.

A word on the half-life: it is how long it takes for the measured level to halve. A word on the logP: it is the decadic logarithm of the partition coefficient of the neutral form, usually between octanol and water. A low value points to lower lipophilicity. Broadly, the solubility is the concentration that dissolves in the medium under given conditions. The low end stands for a poorly soluble substance, the high end for a readily soluble substance. For orientation: logD means the decadic logarithm of the distribution of all forms, ionised or not, between an organic phase and buffer at a given pH. Low values mean lower lipophilicity, high ones higher lipophilicity.

SMILES strings stand for the structures. ≈ marks a conversion by molar mass, not a printed value. Calls of active or inactive are those of the source. The rule behind the calls is not given here.

Data set [1] can be described thus: Hepatic clearance in human liver microsomes at 10 uM in presence of NADPH by LC-MS/MS analysis. It counts as ADME, Microsome. (In general: Microsomes from liver hold many membrane-bound enzymes, among them those of drug oxidation.)
Data set [2] is described as follows: Half life in rat liver microsomes at 10 uM in presence of NADPH by LC-MS/MS analysis. It counts as ADME, Microsome.
Data set [3] is described as follows: n-Octanol/water partition co-efficient, log P of the compound after 4 hrs by LC-MS/MS analysis. It counts as physicochemical.
Data set [4] can be described thus: Intrinsic clearance in rat liver microsomes assessed per mg protein at 10 uM in presence of NADPH by LC-MS/MS analysis. It is filed as ADME, Microsome. Conditions: read-out: CLH.
Data set [5] can be described thus: Ratio of drug level in blood to plasma (unknown origin) at 500 nM by LC-MS/MS analysis. It counts as ADME, cell-free. Conditions: blood and plasma.
A short description of data set [6]: Hepatic intrinsic clearance in human liver microsomes assessed per kg body weight at 10 uM in presence of NADPH by LC-MS/MS analysis. It counts as ADME, Microsome.
Data set [7] can be described thus: Intrinsic clearance in human liver microsomes assessed per mg protein at 10 uM in presence of NADPH by LC-MS/MS analysis. It is filed as ADME, Microsome. Conditions: read-out: CLH.
The nature of data set [8]: Hepatic extraction ratio in rat liver microsomes at 10 uM in presence of NADPH by LC-MS/MS analysis. It counts as ADME, Microsome. Conditions: read-out: ERH.
The nature of data set [9]: Aqueous solubility of compound after 5 hrs at 25 degC by LC-MS/MS analysis. It counts as physicochemical. The conditions noted are these: aqueous medium (not specified further).
Data set [10] can be described thus: Stability in human liver microsomes at 10 uM in presence of NADPH by LC-MS/MS analysis. The conditions noted are these: read-out: Stability. It counts as ADME, Microsome.
Data set [11] can be described thus: Hepatic extraction ratio in human liver microsomes at 10 uM in presence of NADPH by LC-MS/MS analysis. The conditions noted are these: read-out: ERH. It is filed as ADME, Microsome.
Data set [12] can be described thus: Hepatic intrinsic clearance in rat liver microsomes assessed per kg body weight at 10 uM in presence of NADPH by LC-MS/MS analysis. It counts as ADME, Microsome.
Data set [13] can be described thus: Half life in human liver microsomes at 10 uM in presence of NADPH by LC-MS/MS analysis. It counts as ADME, Microsome.
Data set [14] can be described thus: Protein binding in plasma (unknown origin) at 10 to 100 uM after 4 hrs by LC-MS/MS analysis. The conditions noted are these: read-out: PPB. It is filed as ADME, cell-free.
The species entered for data set [15] is Rattus norvegicus. In words: Inhibition of P-gp in rat jejuna mucosa crude membrane fractions assessed as ATPase activity preincubated for 5 mins followed by ATP addition and measured after 30 mins. It counts as cell membranes.
Data set [16] in a line: Hepatic clearance in rat liver microsomes at 10 uM in presence of NADPH by LC-MS/MS analysis. It counts as ADME, Microsome.
A short description of data set [17]: n-Octanol-PBS buffer distribution coefficient, log D of the compound after 4 hrs by LC-MS/MS analysis. It counts as physicochemical.
Data set [18] in a line: Stability in rat liver microsomes at 10 uM in presence of NADPH by LC-MS/MS analysis. It is filed as ADME, Microsome. The conditions noted are these: read-out: Stability.
The species named for data set [19] is Rattus norvegicus. In words: Inhibition of P-gp in rat jejuna mucosa crude membrane fractions assessed as reduction in ATPase activity preincubated for 5 mins followed by ATP addition and measured after 30 mins. It is filed as cell membranes.

As for `CCCCCCCC(c1cn([C@@H]2O[C@H](CO)[C@@H](O)[C@H](O)[C@H]2O)c2ccc(Br)cc12)c1cn([C@@H]2O[C@H](CO)[C@@H](O)[C@H](O)[C@H]2O)c2ccc(Br)cc12`, the CLH is 10.6 mL/min/kg in data set [1], 22.3 mL/min/kg in data set [6], 35.9 mL/min/kg in data set [12] and 21.7 mL/min/kg in data set [16]. For the same compound, the half-life at 10 µM came out at 1.16 h in [2] and 1.35 h in [13]. Moreover, the logP at 4 h in data set [3] amounted to 1.06. The microsomal CLint at 10 µM amounted to 20 µL/min/mg in [4] and 19 µL/min/mg in [7]. Further, the blood plasma ratio at 0.5 µM in data set [5] is at most 1.4. Also, the hepatic extraction ratio at 10 µM was 0.39 in data set [8] and 0.5 in data set [11]. The same compound displayed a solubility at 5 h in [9] of 5.8 µg/mL (≈ 7.02 µM). Further, the remaining at 10 µM in [10] and in data set [18] was above 73% throughout. For the same compound, the fraction unbound at 4 h, up to 100 µM in [14] is below 0.01. The Activity in the data set listed under Rattus norvegicus [15] was in the range of 5.5 to 6.1 µM/min. Also, the logD at 4 h in data set [17] came to 0.08.

`O[C@@H](COc1cccc2ncccc12)CN1CCN([C@@H]2c3ccccc3[C@@H]3[C@H](c4ccccc42)C3(F)F)CC1`: the inhibition entry in the data set listed under Rattus norvegicus [19] is “Active”.

Take `CC(C)NCC(O)COc1ccc(CC(N)=O)cc1` (stereo not given) [ATENOLOL]: the blood plasma ratio at 0.5 µM in [5] was at most 1.2.
